Reference: patent US11980633B2, “Method for treating cancer using a combination of DNA-damaging agents and DNA-PK inhibitors” (Vertex Pharmaceuticals Incorporated, priority 2016, dated 2024)

Tests used:
Format in all cases: cell-based
[1] = tested on: primary human tumors (NSCLC, esophageal, gastric); assay: TCA: Compound B-1 with cisplatin, primary tumors; parameters: Average Bliss score: scale not given here
Description: (§1) In both studies, cell viability was assessed after 6 days in culture. Statistical analysis of the combination matrix was performed to assess whether synergy, additivity, or antagonism of the combination treatments were observed.
(§2) Materials: Primary patient samples (See Tables 16 and 17, below) were excised from mice when they reached 500 mg to 1000 mg in size and processed immediately, or after overnight shipment. Tumors were serially passaged by subcutaneous implantation of 50 mg to 150 mg fragments into the flanks of immunocompromised (nude) mice. Tumors were used within the first 5 or 7 passages.
(§3) Tumor Chemosensitivity Assay (TCA): Primary tumor samples were grown and serially passaged in immunocompromised mice. Tumors were mechanically dissociated into small fragments (1 mm to 2 mm) with scalpels in phosphate buffered saline (PBS or RPMI) and centrifuged at 200×g for 5 minutes at room temperature in 50 mL centrifuge tubes. Samples were resuspended in 10 mL of cell dissociation reagent and enzymatically digested with mechanical agitation for 1 to 3 hours at 37° C., 5% CO2 to a single cell suspension. Ten mL of complete RPMI-1640 media was added to the cell mixture and pipetted up and down 4 to 5 times. The mixture was then passed through a 70 μm or 100 μm mesh strainer to remove undigested tumor. The filtrate was then centrifuged 200×g for 5 minutes at room temperature and resuspended in 20 mL complete RPMI-1640. This cell suspension was slowly layered onto 20 mL of room temperature Histopaque and centrifuged at 400×g for 15 minutes at room temperature without a brake. The interface was transferred to a new 50 mL centrifuge tube and 15 mL of complete RPMI-1640 was added. This suspension was centrifuged at 200×g at room temperature, and the resulting pellet was resuspended in 10 mL of complete PC-1 media, except for pancreatic tumors in which case Pancreatic Medium was used. Cells were diluted in Trypan blue, and viable cells that excluded the dye were counted. Only the larger, tumor cells were included in the cell count. Cells were diluted in complete PC-1 or Pancreatic media, as appropriate for the cells, and were plated at 15,000 to 20,000 cells per well in 100-135 μL in ultra-low attachment U-bottom plates.
(§4) Compound Addition: For these studies, a 10 mM stock of the DNA-PK inhibitor (Compound B-1 or Compound B-2) was made in DMSO and used to add to cells from most tumors with HP D300 Digital Dispenser (Tecan US, Morrisville, NC, USA), or diluted into the appropriate media (PC-1 or pancreatic media) as a 5-10× stock and added to cells (OVX001 and ENX001, 005). PC-1, pancreatic media, and chemotherapeutics were also added so that final well volume was 150 μL. Doxorubicin was made as DMSO stock of 1 or 10 mM and added to cells for most tumors with HP D300 Digital Dispenser, or diluted into PC-1 as 5-10× stock and added to cells (OVX001 and ENX001, 005). Cisplatin (cis-diammine platinum(II), dichloride) was prepared fresh to 10 mM in warm (60° C.) distilled water and diluted in PC-1 as a 5-10× stock. […] Different starting concentrations, dose ranges, and number of doses were used for each experiment based on the response data available at the time.
(§5) For bleomycin experiments, combinations with Compound B-1 at all concentrations were run in triplicate. A 6×3 matrix was designed on one plate, consisting of a 2-point concentration range of 0.73 μM and 2.2 μM Compound B-1 plus no treatment control, in 3 columns each of 6 wells. Bleomycin (plus ‘no treatment’ control) was added to 9 wells in rows of this plate. Similar 6×3 matrices were set up for additional agents with different starting concentrations for compound dilutions. For cisplatin experiments the starting concentration was 30 μM which was diluted 1:3. […] For doxorubicin hydrochloride experiments the starting concentration was 5 μM doxorubicin which was diluted 1:3. For gemcitabine experiments the starting concentration was 5 μM gemcitabine which was diluted 1:3. […]

[2] = tested on: primary human tumors (NSCLC, pancreatic, gastric, esophageal); assay: TCA: Compound B-1 with bleomycin, primary tumors; parameters: Average Bliss score: scale not given here
Description: as §1, §2, §3, §4, §5

[3] = tested on: primary human tumors (esophageal, gastric); assay: TCA: Compound B-1 with 5-FU, primary tumors
Description: as §1, §2, §3, §4, §5

For `CNC(=O)c1ccnc2c([C@H](C)CNc3cc(-c4cnc(C)nc4)ncn3)cccc12` [Compound B-1], the “tumors that showed additivity or synergy” value ([1]; nine of 10 tumors) was 90%, the “tumors that demonstrated antagonism” value ([1]; one of 10 tumors) was 10% and the “Average Bliss score” value ([1]; tumor ESX005, Esophageal) was 2. The Synergy/Additivity/Antagonism ([1]; tumor ESX005, Esophageal) was “Additive (Values between 5 and −5 are considered additive)”, the “Average Bliss score” value ([1]; tumor ESX008, Esophageal) was 1 and the Synergy/Additivity/Antagonism ([1]; tumor ESX008, Esophageal) was “Additive (Values between 5 and −5 are considered additive)”. For the same molecule, the “Average Bliss score” value ([1]; tumor GAX001, Gastric) was 14, the Synergy/Additivity/Antagonism ([1]; tumor GAX001, Gastric) was “Strongly Synergistic (greater than 10 are considered strongly synergistic)” and the “Average Bliss score” value ([1]; tumor GAX007, Gastric) was 2. The Synergy/Additivity/Antagonism ([1]; tumor GAX007, Gastric) was “Additive (Values between 5 and −5 are considered additive)”, the “Average Bliss score” value ([1]; tumor GAX027, Gastric) was −3 and the Synergy/Additivity/Antagonism ([1]; tumor GAX027, Gastric) was “Additive (Values between 5 and −5 are considered additive)”. For the same molecule, the “Average Bliss score” value ([1]; tumor OD33117, Lung (NSCLC)) was 6, the Synergy/Additivity/Antagonism ([1]; tumor OD33117, Lung (NSCLC)) was “Synergistic (greater than 5 are considered synergistic)” and the “Average Bliss score” value ([1]; tumor OD33966, Lung (NSCLC)) was −1. The Synergy/Additivity/Antagonism ([1]; tumor OD33966, Lung (NSCLC)) was “Additive (Values between 5 and −5 are considered additive)”, the “Average Bliss score” value ([1]; tumor OD36088, Lung (NSCLC)) was 6 and the Synergy/Additivity/Antagonism ([1]; tumor OD36088, Lung (NSCLC)) was “Synergistic (greater than 5 are considered synergistic)”. The “Average Bliss score” value ([1]; tumor TS110310, Lung (NSCLC)) was −3, the Synergy/Additivity/Antagonism ([1]; tumor TS110310, Lung (NSCLC)) was “Additive (Values between 5 and −5 are considered additive)” and the “Average Bliss score” value ([1]; tumor YAS111611, Lung (NSCLC)) was −6. The Synergy/Additivity/Antagonism ([1]; tumor YAS111611, Lung (NSCLC)) was “Antagonistic (less than −5 are considered antagonistic)”, the “number of tumors that showed synergy or additivity” value ([2]; of twenty tumors assessed) was 20 tumors and the “tumors that showed strong synergy” value ([2]; six of 20 tumors) was 30%. The “Average Bliss score” value ([2]; tumor ESX005, Esophageal) was 6, the Synergy/Additivity/Antagonism ([2]; tumor ESX005, Esophageal) was “Synergistic (greater than 5 are considered synergistic)” and the “Average Bliss score” value ([2]; tumor ESX008, Esophageal) was 7. For the same molecule, the Synergy/Additivity/Antagonism ([2]; tumor ESX008, Esophageal) was “Synergistic (greater than 5 are considered synergistic)”, the “Average Bliss score” value ([2]; tumor GAX001, Gastric) was 14 and the Synergy/Additivity/Antagonism ([2]; tumor GAX001, Gastric) was “Strongly Synergistic (greater than 10 are considered strongly synergistic)”. For the same molecule, the “Average Bliss score” value ([2]; tumor GAX007, Gastric) was 5, the Synergy/Additivity/Antagonism ([2]; tumor GAX007, Gastric) was “Synergistic (greater than 5 are considered synergistic)” and the “Average Bliss score” value ([2]; tumor GAX027, Gastric) was 11. The Synergy/Additivity/Antagonism ([2]; tumor GAX027, Gastric) was “Strongly Synergistic (greater than 10 are considered strongly synergistic)”, the “Average Bliss score” value ([2]; tumor OD25982, Lung (NSCLC)) was 4 and the Synergy/Additivity/Antagonism ([2]; tumor OD25982, Lung (NSCLC)) was “Additive (Values between 5 and −5 are considered additive)”. For the same molecule, the “Average Bliss score” value ([2]; tumor OD26131, Lung (NSCLC)) was 9, the Synergy/Additivity/Antagonism ([2]; tumor OD26131, Lung (NSCLC)) was “Synergistic (greater than 5 are considered synergistic)” and the “Average Bliss score” value ([2]; tumor OD26749, Lung (NSCLC)) was 10. For the same molecule, the Synergy/Additivity/Antagonism ([2]; tumor OD26749, Lung (NSCLC)) was “Strongly Synergistic (greater than 10 are considered strongly synergistic)”, the “Average Bliss score” value ([2]; tumor OD29498, Lung (NSCLC)) was 3 and the Synergy/Additivity/Antagonism ([2]; tumor OD29498, Lung (NSCLC)) was “Additive (Values between 5 and −5 are considered additive)”. The “Average Bliss score” value ([2]; tumor OD33117, Lung (NSCLC)) was 9, the Synergy/Additivity/Antagonism ([2]; tumor OD33117, Lung (NSCLC)) was “Synergistic (greater than 5 are considered synergistic)” and the “Average Bliss score” value ([2]; tumor OD33966, Lung (NSCLC)) was 3. For the same molecule, the Synergy/Additivity/Antagonism ([2]; tumor OD33966, Lung (NSCLC)) was “Additive (Values between 5 and −5 are considered additive)”, the “Average Bliss score” value ([2]; tumor OD36088, Lung (NSCLC)) was 14 and the Synergy/Additivity/Antagonism ([2]; tumor OD36088, Lung (NSCLC)) was “Strongly Synergistic (greater than 10 are considered strongly synergistic)”. The “Average Bliss score” value ([2]; tumor P110323, Pancreatic) was 10, the Synergy/Additivity/Antagonism ([2]; tumor P110323, Pancreatic) was “Strongly Synergistic (greater than 10 are considered strongly synergistic)” and the “Average Bliss score” value ([2]; tumor P110325, Pancreatic) was 0. The Synergy/Additivity/Antagonism ([2]; tumor P110325, Pancreatic) was “Additive (Values between 5 and −5 are considered additive)”, the “Average Bliss score” value ([2]; tumor P110408, Pancreatic) was 7 and the Synergy/Additivity/Antagonism ([2]; tumor P110408, Pancreatic) was “Synergistic (greater than 5 are considered synergistic)”. The “Average Bliss score” value ([2]; tumor P110413, Pancreatic) was 6, the Synergy/Additivity/Antagonism ([2]; tumor P110413, Pancreatic) was “Synergistic (greater than 5 are considered synergistic)” and the “Average Bliss score” value ([2]; tumor P110504, Pancreatic) was 8. The Synergy/Additivity/Antagonism ([2]; tumor P110504, Pancreatic) was “Synergistic (greater than 5 are considered synergistic)”, the “Average Bliss score” value ([2]; tumor P110603, Pancreatic) was 14 and the Synergy/Additivity/Antagonism ([2]; tumor P110603, Pancreatic) was “Strongly Synergistic (greater than 10 are considered strongly synergistic)”. The “Average Bliss score” value ([2]; tumor TS110310, Lung (NSCLC)) was 2, the Synergy/Additivity/Antagonism ([2]; tumor TS110310, Lung (NSCLC)) was “Additive (Values between 5 and −5 are considered additive)” and the “Average Bliss score” value ([2]; tumor YAS111611, Lung (NSCLC)) was 6. For the same molecule, the Synergy/Additivity/Antagonism ([2]; tumor YAS111611, Lung (NSCLC)) was “Synergistic (greater than 5 are considered synergistic)”, the “tumors that showed synergy or additivity” value ([3]; 5 tumors) was 100% and the “Average Bliss score” value ([3]; tumor ESX005, Esophageal) was −1. For the same molecule, the Synergy/Additivity/Antagonism ([3]; tumor ESX005, Esophageal) was “Additive (Values between 5 and −5 are considered additive)”, the “Average Bliss score” value ([3]; tumor ESX008, Esophageal) was −2 and the Synergy/Additivity/Antagonism ([3]; tumor ESX008, Esophageal) was “Additive (Values between 5 and −5 are considered additive)”. The “Average Bliss score” value ([3]; tumor GAX001, Gastric) was 6, the Synergy/Additivity/Antagonism ([3]; tumor GAX001, Gastric) was “Synergistic (greater than 5 are considered synergistic)” and the “Average Bliss score” value ([3]; tumor GAX007, Gastric) was 0. For the same molecule, the Synergy/Additivity/Antagonism ([3]; tumor GAX007, Gastric) was “Additive (Values between 5 and −5 are considered additive)”, the “Average Bliss score” value ([3]; tumor GAX027, Gastric) was 4 and the Synergy/Additivity/Antagonism ([3]; tumor GAX027, Gastric) was “Additive (Values between 5 and −5 are considered additive)”.
